The text below walks through data of article PMC10302146, “Dual Anta-Inhibitors Targeting Protein Kinase CK1δ and A2A Adenosine Receptor Useful in Neurodegenerative Disorders” (Molecules, 2023).

One data set concerns the target human recombinant A1AR. Further details: method as in PMID 37259317. Particulars: [3H]CCPA, membranes from CHO cells stably transfected; means ± standard errors; read-out: KiA1; cited from earlier work.
A further data set has as its system N13 microglial cells. As to the kind of experiment: N13 cell viability, ligand pretreatment 60 min then CK cocktail 48 h (CK1δ inhibition protocol). The class given is cell-based.
The target in the next data set is human recombinant A3AR. Further details: method as in PMID 37259317. Particulars: [3H]HEMADO, membranes from CHO cells stably transfected; means ± standard errors; read-out: KiA3; cited from earlier work.
The target in the next data set is human recombinant A2AAR. Details: method as in PMID 37259317. To be noted: [3H]NECA, membranes from CHO cells stably transfected; means ± standard errors; read-out: KiA2A; cited from earlier work.
Data set [1] in a line: Everted gut sac absorption study (duodenum), HPLC-MS. The data set is classed as in vitro ADME, rat. To be noted: for Papp at 60 min: male, Wistar, rat. As to the method:
Despite these remarkable assumptions, as many known kinase inhibitors are very often unable to cross lipid bilayer membranes, including the blood–brain barrier, and are, therefore, only suitable for non-central nervous system disorders, the ability of A2A/CK1δ double anta-inhibitors to cross the intestinal barrier was investigated. The experiment was performed using the everted gut sac model. The everted sac model is an efficient tool for studying in vitro drug absorption mechanisms, intestinal metabolism of drugs, the role of transporters in drug absorption, and investigating the role of intestinal enzymes during drug transport through the intestine. Compounds 1 and 2 were measured by liquid chromatography-mass spectrometry (LC-MS) in the mucosal and serosal media to provide a complete picture of the transport.
Compounds 1 and 2 were incubated in the duodenum for 60 min at concentrations of 10^−4, 10^−5, and 10^−6 M to evaluate their absorption.
The concentrations 10^−4, 10^−5, and 10^−6 M correspond to 24.6, 2.46, and 0.246 μg/mL of compound 1 and to 37.6, 3.76, and 0.376 μg/mL of compound 2 due to different molecular weights. Glucose was used to verify the integrity and viability of the gut sacs. Intestine sacs were exposed to the concentrations of compounds under study with respect to glucose-treated tissues. After incubation time, fluids from the mucosal (outside the sacs) and serosal (inside the sacs) sides of the rat gut sacs were collected and detected by HPLC-MS analysis. As expected, the amount of the absorbed analytes was concentration dependent even if compound 1 was much better absorbed with respect to compound 2 (Table 2 and Table 3). […] Data are reported as means ± SE (n = 4–5 experiments). The amount of compounds absorbed compared to the initial concentration is statistically different (p < 0.05).
Adult male Wistar rats (250–300 g; 11–12 weeks) were sacrificed by cervical dislocation, the small intestine was removed, and the duodenum segment was isolated and washed in TC199 medium. The intestine was divided into segments of 2–2.5 cm in length (4 for each animal), and each of them was everted on a glass rod of […] in diameter. All segments were closed at one end with a silk thread, filled with fresh oxygenated TC199 medium, and closed at the other end, creating a shut section (sac). Each sac was placed in a 50 mL beaker containing 9.0 mL of medium aerated with oxygen (O2/CO2, 95%:5%) and thermostated at 37 °C. A total of 1 mL of medium containing one of the samples at a concentration of 1 uM, 10 uM, or 100 uM was added. Each concentration was tested in duplicate in three different animals. In order to mimic the intestine peristalsis, gut sacs were incubated in an oscillating water bath (60 cycles/min). After 1h incubation, sacs were removed, washed in saline solution (0.9% NaCl), and wiped with filter paper. The content of each sac (serosal fluid) was collected into a 1.5 mL Eppendorf tube, and the sac was weighed before and after serosal fluid removal to calculate the exact volume contained inside. Samples were centrifuged for 15 min. at 13,500× g, and the supernatant aqueous solution was filtered through a microporous membrane (0.45 μm) for high-performance liquid chromatography (HPLC). The amount of compound 1 or 2 present inside (serosal fluid) and outside (mucosal fluid) of each sac was calculated by HPLC with diode-array detection (HPLC-DAD) analysis.
The obtained samples from the everted sac model experiment were centrifuged for 20 min at 13,500× g rpm, and the supernatant aqueous solution was filtered through a microporous membrane (0.45 μm pore size) for high-performance liquid chromatography-mass spectrometry analysis. LC-MS analysis was carried out using an HPLC Agilent Technologies 1260 Infinity II and a single quadrupole mass spectrometer. […]

The subject of another data set is N13 cell line. As to the kind of experiment: Griess assay, nitrite production (antioxidant effect). The data set is classed as cell-based. To be noted: for antioxidant activity (Griess Reagent System): compound 1 7500 nM, incubated for 1 hr, vs. ZM241385 10 nM. The source says:
In addition, since oxidative stress has received extensive attention as one important entry point in the pathogenesis of neurodegenerative diseases, the potential antioxidant profile of compounds 1 and 2 was investigated. Oxidative stress and neuroinflammation play synergistic roles in the promotion of neurodegenerative disease progression. During a CNS insult, there is an activation of microglial cells, which stimulate immune responses to instigate tissue repair. If the triggering cause of the immune response is eradicated, the immune response resolves, but if the initial stress persists, it will lead to an overproduction of neurotoxic factors such as chemokines and proinflammatory cytokines such as Tumor Necrosis Factor-α (TNF-α) and Interleukin-1β (IL-1β). This pathological state will lead to an overproduction of ROS and a state of oxidative stress. High levels of ROS inactivate or damage proteins, leading to cellular degeneration and death. Furthermore, ROS can activate proinflammatory pathways, further promoting a harmful environment for vulnerable neurons. In light of this, the potential antioxidant capacity of compounds was studied. […] The combination of anti-inflammatory and antioxidant activities makes compound 2 particularly appealing in counteracting two of the factors involved in the pathogenesis of neurodegenerative pathologies.
The N13 cell line was introduced into a 96-well UV-VIS transparent plate at a population of 1 × 10^4 cells per well in 98 μL of DMEM and incubated overnight. […] After 24 h of incubation, the media from each well was transferred into another 96-well plate, and then 50 µL of the sulphanilamide solution was placed into the wells. After 10 min of incubation at room temperature (rt), 50 µL of the NED solution was dispensed to all wells, and the plate was incubated at rt for an additional 5–10 min. After half an hour, absorbance was measured in the microplate reader GENiosPro using a 520–550 nm filter. All measurements were reproduced in 3–5 replicates. The nitric oxide formation was investigated by measuring nitrite (NO^2−), which is one of two primary breakdown products of NO. A nitrite standard reference curve was used for quantitative evaluation of the concentration of NO^2− in samples.
On the technique in general: Nitrite, measured by Griess reagent, commonly stands in for NO production.

[2] abbreviates: duodenum, 60 min, initial 10^−4 M (24.6 μg/mL compound 1, 37.6 μg/mL compound 2).
Setting [3] is: duodenum, 60 min, initial 10^−5 M (2.46 μg/mL compound 1, 3.76 μg/mL compound 2).
Setting [4] is: duodenum, 60 min, initial 10^−6 M (0.246 μg/mL compound 1, 0.376 μg/mL compound 2).

For the compound `CN(C)c1nc(N)c2ncn(C3CCCC3)c2n1` [compound 1, 9-Cyclopentyl-N2,N2-dimethyl-9H-purine-2,6-diamine], the results for the Ki on human recombinant A1AR, on human recombinant A3AR and on human recombinant A2AAR were 3340 ± 658 nM, 2880 ± 695 nM and 123 ± 2 nM, respectively. Further, in the data set with N13 microglial cells (N13, 40 µM 60 min before CK cocktail 48 h, CK cocktail alone 79% ± 1.1 vs. control), the viability (as a rule, a per cent measure of how many cells are alive, often set against a control) at 40 µM was determined as 85%. Also, the “Percentage of Drug Absorption (A%)” value is recorded as 47% in data set [1] (10^−4 M, 60 min); 42% in data set [1] (10^−5 M, 60 min); 24% in data set [1] (10^−6 M, 60 min). In addition, the “Percentage of Drug Retention (Ad%)” value came out at 2% in data set [1] (10^−4 M, 60 min); 10% in data set [1] (10^−5 M, 60 min); 35% in data set [1] (10^−6 M, 60 min). Besides, the “Absorbed Concentration” value was determined as 11.5 µg/mL in data set [1] (setting [2]), 1.03 µg/mL in data set [1] (setting [3]) and 0.059 µg/mL in data set [1] (setting [4]). Besides, the values for the Papp at 60 min in data set [1] (10^−4 M), in data set [1] (10^−5 M) and in data set [1] (10^−6 M) were 33 ×10⁻⁶ cm/s, 29.6 ×10⁻⁶ cm/s and 16.9 ×10⁻⁶ cm/s, respectively. For the same compound, the “antioxidant activity (Griess Reagent System)” value in the data set on N13 cell line (compound 2 4500 nM) is reported as “no significant antioxidant activity”.
On to `CN(C)c1nc(NCc2nc3ccccc3[nH]2)c2ncn(C3CCCC3)c2n1` [compound 2, N^6-methyl-(2-benzimidazolyl)-2-dimethyamino-9-cyclopentyladenine], for which the Ki was 2900 ± 648 nM on human recombinant A1AR, 1150 ± 107 nM at human recombinant A3AR and 76.2 ± 173 nM at human recombinant A2AAR. Further, the cell viability in the data set with N13 microglial cells (25 µM 60 min before CK cocktail 48 h, CK cocktail alone 79% ± 1.1 vs. control (Figure 6)) was 94% ± 2.2. Besides, the “effect of NECA on the neuroprotective effect of the compound” value in the data set with N13 microglial cells (compound 25 µM 60 min before CK cocktail 48 h, then NECA 10 µM) was “ineffective”. Further, the “Papp (×10^−6 cm/s)” value in data set [1] (10^−4 M, 60 min) is recorded as 16.1 ×10^−6 cm/s; in data set [1] (10^−5 M, 60 min), 10.8 ×10^−6 cm/s. Further, the “Percentage of Drug Absorption (A%)” value was determined as 23% in data set [1] (10^−4 M, 60 min) and 15% in data set [1] (10^−5 M, 60 min). Also, the “Percentage of Drug Retention (Ad%)” value is reported as 55% in data set [1] (10^−4 M, 60 min) and 66% in data set [1] (10^−5 M, 60 min). The “metabolic conversion in everted gut sac (HPLC analysis)” value in data set [1] (duodenum, 60 min) is recorded as “partially converted into its metabolite, compound 1”. In addition, the “Absorbed Concentration” value in data set [1] (setting [2]) is 8.66 µg/mL; in data set [1] (setting [3]), 0.576 µg/mL; in data set [1] (setting [4]), “not detectable”. For the same compound, in the data set on N13 cell line (4500 nM), the “amount of nitrite produced vs. control” value is listed as “inferior to that revealed in the control”. In addition, the “antioxidant activity (Griess Reagent System)” value in the data set on N13 cell line (compound 2 4500 nM) is given as “important antioxidant effect similar to that of the reference compound”. The “compensation of oxidative stress caused by the CK cocktail” value in the data set on N13 cell line (compound 2 4500 nM, ZM241385 10 nM) is “successfully compensated”.
